Laboratory results taken from patent US7816521B2, “1,2,4-benzotriazine-1,4-dioxides” (Auckland Uniservices Limited, priority 2004, dated 2010).
≈ marks a conversion by molar mass, not a printed value.

Columns and labels:
[1] = Plasma pharmacokinetics, AUC of free drug in CD-1 nude mice; assay type: in vivo, mouse; details: CD-1 nude, mouse, plasma, ip, mouse plasma, free drug, at the MTD or 75% of the MTD; Table 2; read-out: AUC
Experimental: The area under the concentration time curve for free drug (AUCf) in mouse plasma at the maximum tolerated dose (MTD) was determined either experimentally or by calculation.
The compound was formulated in a suitable vehicle (e.g. 0.9% saline, 5% DMSO in 0.9% saline) and administered intraperitoneally (i.p.) as single dose to CD-1 nude mice in a dose-escalating format using 1.33-fold dose increments.
The compound was administered to CD-1 nude mice in a suitable formulation as a single dose (i.p.) at the MTD. Blood samples were collected by retro-orbital sinus bleed or cardiac puncture after which the mouse was culled, or by serial bleeding from the tail vein. Typical time points were 15, 30, 60, and 120 min after administration. Blood was collected in a heparinised container and centrifuged to collect the plasma. The plasma concentration of the compound was determined by HPLC or LCMS using suitable sample preparation and analytical methods. Calibration was done with internal or external standards. The area under the concentration-time curve (AUC) for total (free plus bound) drug was calculated using the linear/log trapezoidal rule and extrapolation to infinity OR standard non-compartmental (PK) modelling.
Plasma protein binding was measured by the determination of the free fraction (FF) by equilibrium dialysis at 37° C. in 50% (v/v) mouse plasma in phosphate-buffered saline (pH 7.4), using a single drug concentration at or near the observed or extrapolated maximum concentration in plasma (Cmax). Compound concentrations after dialysis were determined by HPLC or LCMS.
AUCf for the compound administered as a single dose (i.p.) to CD-1 nude mice at the MTD can be estimated using the following regression equation: Log10(AUCf)=a+b×log Pneutral+c×log10(IC50)+d×log10(HCR)+e×log10(DMCL)+f×log10(kmet)+g×(log Pneutral)^2 where the coefficients are described in the following table: […]

[2] = test system: human colon carcinoma cell line HT-29; assay: Proliferation assay (IC50) under aerobic and hypoxic conditions; assay type: cell-based; details: for IC50: Homo sapiens, HT-29, HT29, anoxic, 4 hr exposure; for HCR: hypoxic cytotoxicity ratio: aerobic IC50 / hypoxic IC50, HT29
Experimental: Compounds representative of the invention were evaluated under both aerobic and hypoxic conditions in a proliferation assay (IC50) using the human colon carcinoma cell line HT-29 as previously described [Hay et al, J. Med. Chem, 2003, 46, 169]. For each experiment, compounds were simultaneously tested under both oxic and hypoxic conditions and included TPZ as an independent internal control at the front and back of the assay. In all cases, a 8-methyl-5-nitroquinoline derivative was used as a second internal control to confirm that strict hypoxia was present during the experiment [Siim et al., Br. J. Cancer 1994, 70, 596].

[3] = test system: hypoxic cells in HT29 tumours; assay: HT29 excision assay (drug after 20 Gy radiation, clonogenic survival); assay type: in vivo, human; details: log10 kill of hypoxic cells in HT29 tumours, additional to radiation alone; MTD or 75% of MTD; Table 2
Source text: In order to test the validity of this PK/PD model as a tool for predicting the antitumour activity of TPZ analogues, the inventors determined the key PK/PD parameters for 13 TPZ analogues, and TPZ itself, for the HT29 human colon carcinoma cell line. These parameters were then used to calculate the expected killing in hypoxic regions of HT29 tumours following a single intraperitoneal dose of the compounds at their maximum tolerated dose. The results of this calculation were then compared with measured killing of hypoxic cells in HT29 tumours, determined by administering the compounds immediately (within 5 min) after gamma irradiation (cobalt 60, 20 Gy) to sterilise oxygenated cells in the tumours. Tumours were removed 18 hours later and the number of surviving cells determined by clonogenic assay. The measured PK/PD parameters, model prediction (using the above 3D microvascular network), and experimentally determined hypoxic cell kill is shown in Table 1, and the relationship between predicted and measured cell kill in FIG. 4. The prediction is statistically highly significant (p=0.001, Fisher exact test). […] If the extravascular transport component was excluded from the model, the R^2 for this regression was only 0.28 and the relationship was not statistically significant.
Animals were treated with radiation alone (RAD, 20 Gy whole body); RAD+TPZ (316 μmol/kg); compound 3 (562 μmol/kg); RAD+compound 3 (562 μmol/kg). Tumours were excised 18 hr after treatment and clonogenic survival determined by staining colonies 14 days later. Each symbol represents a separate tumour. p<0.01 (one way ANOVA with Dunnett's test) for RAD+compound 3 and for RAD+TPZ versus RAD only. Horizontal lines are the historical means for untreated controls (upper line) and 20 Gy radiation only (lower line).
Compounds were evaluated with single dose radiation using s.c. HT29 tumors (average of two largest diameters 7-10 mm) grown by inoculating 10^7 cells (obtained by enzymatic dissociation of multicellular spheroids). Drugs were administered as single i.p. doses at their MTD with the following groups in each experiment. A: vehicle control, B: test drug, C: Radiation (20 Gy, cobalt-60, whole body irradiation), D: TPZ (316 μmol/kg) 5 min after radiation, E: Test drug 5 min after radiation. Each group included 3 (A, B) or 5 (C-E) mice. Tumors were excised 18 hr after treatment and plated to determine clonogenicity. Hypoxic cytotoxicity is determined by the difference in surviving fraction between groups C and E, while comparison of A and B evaluates oxic cell killing. Total yield of clonogens was used as the key parameter if cell yields were affected by treatment. Results of this assay are illustrated for compound 3 (and TPZ) in FIG. 5.

[4] = Solubility in culture medium; assay type: physicochemical; details: culture medium (αMEM with 5% foetal bovine serum), plasma or biological fluid, thermodynamic from solid; culture medium (αMEM, 5% foetal bovine serum), pH 7.4; no unit in table, threshold is 2 mM
Experimental: Solubility is determined in laboratory culture medium (alpha minimal essential medium (αMEM) with 5% foetal bovine serum) saturated with 5% carbon dioxide at pH 7.4, by addition of excess compound and sonication at ambient temperature for 15 minutes. Alternatively the compound is diluted from a concentrated stock solution in DMSO into culture medium to give a final DMSO concentration <1%. The mixture is centrifuged at 13,000 rpm for 6 minutes and the concentration of drug in the supernatant solution is then determined by HPLC using a standard reference solution in a suitable solvent.

Work on `Cc1ccc2c(c1)[n+]([O-])c(NCCCN1CCOCC1)n[n+]2[O-]` [O, 6-Methyl-N-[3-(4-morpholinyl)propyl]-1,2,4-benzotriazin-3-amine 1,4-Dioxide] yielded an AUC [1] of 195 µM·h, an IC50 [2] of 15.5 µM and an HCR [2] of 24.7. For the same compound, the HT29 log kill [3] was 1.28 and the solubility [4] was 42.6 mM (≈ 13.6 mg/mL).

In the case of `COc1ccc2c(c1)[n+]([O-])c(NCCN(C)C)n[n+]2[O-]` [P, N^1-(6-Methoxy-1,4-dioxido-1,2,4-benzotriazin-3-yl)-N^2,N^2-dimethyl-1,2-ethanediamine], the AUC [1] is reported as 240 µM·h, the IC50 [2] is reported as 7.65 µM and the HCR [2] is reported as 89.3. For the same compound, the HT29 log kill [3] was 1.84 and the solubility [4] was 45.5 mM (≈ 12.7 mg/mL).

Compound `COCCOc1ccc2c(c1)[n+]([O-])c(NCCN(C)C)n[n+]2[O-]` [Q, N^1-[6-(2-Methoxyethoxy)-1,4-dioxido-1,2,4-benzotriazin-3-yl]-N^2,N^2-dimethyl-1,2-ethanediamine] has an AUC [1] of 256 µM·h, an IC50 [2] of 4.98 µM and an HCR [2] of 162.0. For the same compound, the HT29 log kill [3] was 0.53 and the solubility [4] was 51.2 mM (≈ 16.6 mg/mL).

With `CCOc1ccc2c(c1)[n+]([O-])c(NCCN(C)C)n[n+]2[O-]` [R, N^1,N^1-Dimethyl-N^2-(6-ethoxy-1,4-dioxido-1,2,4-benzotriazin-3-yl)-1,2-ethanediamine] the AUC [1] was 82.4 µM·h, the IC50 [2] was 2.6 µM and the HCR [2] was 120.6. It also gave an HT29 log kill [3] of 0.83 and a solubility [4] of 50.3 mM (≈ 14.8 mg/mL).

`CCc1ccc2c(c1)[n+]([O-])c(NCCCN1CCOCC1)n[n+]2[O-]` [S, 6-Ethyl-N-[3-(4-morpholinyl)propyl]-1,2,4-benzotriazin-3-amine 1,4-Dioxide] showed an AUC [1] of 94.9 µM·h, an IC50 [2] of 10.4 µM and an HCR [2] of 35.0. It also gave an HT29 log kill [3] of 0.82 and a solubility [4] of 54.9 mM (≈ 18.3 mg/mL).

In the case of `CCc1n[n+]([O-])c2ccc(OCCN(C)C)cc2[n+]1[O-]` [T, 2-[(3-Ethyl-1,4-dioxido-1,2,4-benzotriazin-6-yl)oxy]-N, N-dimethylethaneamine], the AUC [1] is reported as 55.7 µM·h, the IC50 [2] is reported as 1.33 µM and the HCR [2] is reported as 307.2. It also gave an HT29 log kill [3] of 0.88 and a solubility [4] of 48.5 mM (≈ 13.5 mg/mL).

Work on `CCc1n[n+]([O-])c2ccc(OCCCN3CCOCC3)cc2[n+]1[O-]` [U, 3-Ethyl-6-[3-(4-morpholinyl)propoxy]-1,2,4-benzotriazine 1,4-Dioxide] yielded an AUC [1] of 162 µM·h, an IC50 [2] of 6.17 µM and an HCR [2] of 166.2. It also gave an HT29 log kill [3] of 1.66 and a solubility [4] of 46.7 mM (≈ 15.6 mg/mL).
